Reference: patent publication US20120121535A1, “AGENT FOR PREVENTING RECURRENCE OF LEUKEMIA” (RIKEN, priority 2009, published 2012)

Assays:
[1] = test system: CD34+CD38− LSCs and CD34+CD38+ AML non-stem cells; assay: Activated caspase-3 flow cytometry of BM cells undergoing apoptosis; parameters: species or system NOD/SCID/IL2rg^null mice transplanted with human AML; conditions: in vivo administration, recipient BM
Experimental: Myelocytes were recovered from two tibiae and one femur from each analyzed recipient; MNCs (mononucleocytes) were counted manually and using an automated blood cell analyzer (Celltac α, Nihon Kohden, Japan), and the absolute number of BMMNCs derived from each recipient was estimated. The absolute number of human CD34^+ cells (derived from two tibiae and one femur) per mouse was determined by multiplying the thus-obtained total BMMNC count by 7AAD^−hCD45^+hCD34^+ BM cells (%). BrdU uptake was measured using a BrdU flow kit (BD Pharmingen, Calif.). To quantify cells in the G0 phase of the cell cycle, the cells were stained with Hoechst 33342 and Pyronin Y, and then surface-stained using standard procedures. […]

[2] = test system: hCD34+ cells, including LSCs; assay: Percentage and absolute number of remaining viable hCD45+CD34+ cells in recipient BM; assay type: in vivo, NOD/SCID/IL2rg^null mice transplanted with human AML; conditions: mean +/− SEM; for #CD45+CD34+/mouse (×10^6): two tibiae and one femur; for % CD45+CD34+: viable cells in BM
Text: (§1) For experiments involving administration of G-CSF alone, administration of Ara-C alone, and administration of G-CSF followed by administration of Ara-C, recipients of primary transplantation of human AML were used 16 to 24 weeks after transplantation. For each experiment for comparison of various dose groups, a pair of recipients was selected from among litter mates, with the same primary AML sample transplanted in the same amount on the same day so as to suppress variation among the litter mates and variation due to differences in transplantation level. Performed were administration of recombinant human G-CSF (Wako, Japan): 300 μg/kg s.c. qd×5 days; administration of Ara-C (Biogenesis, Poole, UK): 1 g/kg i.p. qd×2 days; administration of G-CSF+Ara-C: G-CSF 300 μg/kg s.c. qd×5 days, and concurrent administration of Ara-C 1 g/kg i.p. qd×2 days on days 4 and 5 of administration. The recipients were killed 16 hours after final injection. BrdU (1.5 mg/mouse; BD Biosciences, Calif.) was injected by i.p. to recipients under a cell cycle analysis by BrdU uptake immediately after the final injection (s.c. stands for subcutaneous administration, and i.p. for intraperitoneal administration).
(§2) For evaluation of human AML transplantation, blood was drawn from the orbital sinus of each recipient every 3 weeks starting at week 6 after transplantation. Myelocytes were recovered from two tibiae and one femur from each analyzed recipient; MNCs (mononucleocytes) were counted manually and using an automated blood cell analyzer (Celltac α, Nihon Kohden, Japan), and the absolute number of BMMNCs derived from each recipient was estimated. The absolute number of human CD34^+ cells (derived from two tibiae and one femur) per mouse was determined by multiplying the thus-obtained total BMMNC count by 7AAD^−hCD45^+hCD34^+ BM cells (%). BrdU uptake was measured using a BrdU flow kit (BD Pharmingen, Calif.). To quantify cells in the G0 phase of the cell cycle, the cells were stained with Hoechst 33342 and Pyronin Y, and then surface-stained using standard procedures. Quantitation of cells undergoing apoptosis was performed by staining activated caspase-3 in the cells using a rabbit anti-activated caspase-3 monoclonal antibody (BD Pharmingen, Calif.). Surface labeling was achieved using mouse anti-human CD45, anti-CD34 and anti-CD38 monoclonal antibodies (BD Immunocytometry). Analyses were performed using FACSAria and FACSCanto II (Becton Dickinson, Calif.).
To evaluate the frequency and function of LSCs remaining after each dosing, limited dilution and secondary transplantation of living hCD34^+ BM cells, including leukemia stem cells sorted from recipients given administration of Ara-C alone or G-CSF+Ara-C, were performed. The absolute number of hCD34^+ cells was obtained from the number of mononucleocytes in two tibiae and one femur derived from each recipient, and viable hCD34^+ cell (%) was obtained by flow cytometry.
The results are shown as mean value +/− SEM; differences were examined by two-tailed t-test.

hCD34+CD38− LSCs = assay: Flow cytometric cell cycle analysis of LSCs in BM of recipients of primary transplantation of human AML; assay type: in vivo, NOD/SCID/IL2rg^null mice transplanted with human AML
Text: (§3) Newborn (within 2 days of birth) NOD/SCID/IL2rg^null recipient received 150 cGy of total body irradiation using a ^137Cs-source irradiator, followed by intravenous injection of AML cells within two hours. For primary transplantation, 10^3 to 5×10^4 sorted BM cells per recipient from a 7AAD^− lineage (hCD3/hCD4/hCD8) ^−hCD34^+hCD38^− AML patient were used, as described in F. Ishikawa et al., Nat. Biotechnol. 25, 1315 (2007). For secondary transplantation after administration of Ara-C (cytarabine) alone or after administration of G-CSF followed by administration of Ara-C, 2×10^2, 2×10^3, 2×10^4, or 2×10^5 sorted 7AAD^−hCD45^+hCD34^+ BM cells per recipient were used. For fluorescence-activated cell sorting, BMMNC cells from AML patients were labeled with fluorescent dye-conjugated mouse anti-hCD3, anti-hCD4, anti-hCD8, anti-hCD34 and anti-hCD38 monoclonal antibodies (BD Immunocytometry), and BMMNC cells from recipients were labeled with mouse anti-hCD45, anti-hCD34 and anti-hCD38 monoclonal antibodies (BD Immunocytometry); the cells were sorted using FACSAria (Beckton Dickinson, Calif.). Doublets were eliminated via analysis of FSC/SSC-height and FSC/SSC-width. After the sorting, the purities of hCD34^+hCD38^− cells and hCD34^+ cells exceeded 98%.
For experiments involving administration of G-CSF alone, administration of Ara-C alone, and administration of G-CSF followed by administration of Ara-C, recipients of primary transplantation of human AML were used 16 to 24 weeks after transplantation. […]
as §2, with “Surface labeling was achieved using mouse anti-human CD45, anti-CD34 and anti-CD38 monoclonal antibodies (BD Immunocytometry). Analyses were performed using FACSAria and FACSCanto II (Becton Dickinson, Calif.).” left out

LSCs = assay: Limited dilution secondary transplantation of sorted hCD34+ BM cells (LSC frequency, survival of secondary recipients); assay type: in vivo, NOD/SCID/IL2rg^null mice transplanted with human AML; conditions: secondary recipients of hCD34+ cells from treated mice
Text: as §3, with “After the sorting, the purities of hCD34^+hCD38^− cells and hCD34^+ cells exceeded 98%.” left out
Differences in the ratios/absolute numbers of cells (%), activated caspase-negative cells (%), and BM CD34^+ cells in the cell cycle were analyzed using two-tailed t-test (GraphPad Prism, GraphPad, San Diego, Calif.). […]

[3] = test system: AML cells in the endosteum; assay: HE and TUNEL staining of bone sections; assay type: in vivo, NOD/SCID/IL2rg^null mice transplanted with human AML; conditions: bone sections of recipients
Text: For experiments involving administration of G-CSF alone, administration of Ara-C alone, and administration of G-CSF followed by administration of Ara-C, recipients of primary transplantation of human AML were used 16 to 24 weeks after transplantation. For each experiment for comparison of various dose groups, a pair of recipients was selected from among litter mates, with the same primary AML sample transplanted in the same amount on the same day so as to suppress variation among the litter mates and variation due to differences in transplantation level. […]
After administration of Ara-C alone or after administration of Ara-C following pre-administration of G-CSF, the BM of the recipients was evaluated in terms of 1) a flow cytometry fraction of activated caspase-3 positive LSCs undergoing apoptosis, 2) histological localization of cells undergoing apoptosis in the recipient BM as determined by TUNEL staining, 3) percentage and absolute number of remaining viable hCD34^+ AML cells, and 4) frequency and AML-causing potential of remaining LSCs in alternative measurements of the likelihood of AML recurrence via limited dilution and sequential transplantation of sorted hCD34^+ cells. […]

[4] = test system: AML cells in the endosteal region; assay: Histological analysis of bone sections (BrdU uptake, Ki67 immunofluorescence) of recipients of human AML; assay type: in vivo, NOD/SCID/IL2rg^null mice transplanted with human AML
Text: as §1
Paraformaldehyde-fixed, decalcified, paraffin-embedded sections were prepared from femurs of the recipients primarily transplanted with AML. […]

[5] = post-Ara-C, intraperitoneal, n=15
[6] = after administration of G-CSF in vivo, all cases examined

Molecule: Nc1ccn([C@@H]2O[C@H](CO)[C@@H](O)[C@@H]2O)c(=O)n1 [Ara-C, cytarabine]
- Apoptosis of CD34+CD38+ AML non-stem cells (activated caspase-3) [1]: underwent apoptosis
- Apoptosis of CD34+CD38− LSCs (activated caspase-3) [1]: the majority of CD34^+CD38^− LSCs did not
- #CD45+CD34+/mouse (×10^6) ([2]; Case ID 1): 1.4 +/− 0.3 ×10^6
- % CD45+CD34+ ([2]; Case ID 1): 29.7 +/− 1.6%
- #CD45+CD34+/mouse (×10^6) ([2]; Case ID 2): 4.9 +/− 0.7 ×10^6
- % CD45+CD34+ ([2]; Case ID 2): 84.9 +/− 2.5%
- #CD45+CD34+/mouse (×10^6) ([2]; Case ID 3): 2.3 +/− 0.1 ×10^6
- % CD45+CD34+ ([2]; Case ID 3): 80.2 +/− 2.3%
- #CD45+CD34+/mouse (×10^6) ([2]; Case ID 4): 3.6 +/− 0.8 ×10^6
- % CD45+CD34+ ([2]; Case ID 4): 68.0 +/− 2.8%
- #CD45+CD34+/mouse (×10^6) ([2]; Case ID 5): 2.1 +/− 0.2 ×10^6
- % CD45+CD34+ ([2]; Case ID 5): 61.5 +/− 7.5%
- #CD45+CD34+/mouse (×10^6) ([2]; Case ID 6): 5.3 +/− 1.4 ×10^6
- % CD45+CD34+ ([2]; Case ID 6): 49.0 +/− 9.2%
- #CD45+CD34+/mouse (×10^6) ([2]; Case ID 7): 0.7 +/− 0.1 ×10^6
- % CD45+CD34+ ([2]; Case ID 7): 16.5 +/− 1.7%
- % G0/G1 of CD34+CD38− AML cells (hCD34+CD38− LSCs; [5]): 91.7+/−2.3%
- % S of CD34+CD38− AML cells (hCD34+CD38− LSCs; [5]): 0.1+/−0.1%
- Secondary mouse recipients surviving beyond 19 weeks after transplantation (LSCs): None
- Cell death in the endosteum (TUNEL and HE staining) [3]: TUNEL-negative AML cells remaining in the endosteum

B1: G-CSF: recombinant human G-CSF (Wako, Japan), granulocyte colony stimulation factor (protein)
chain: TPLGPASSLPQSFLLKCLEQVRKIQGDGAALQEKLVSECATYKLCHPEELVLLGHSLGIPWAPLSSCPSQALQLAGCLSQLHSGLFLYQGLLQALEGISPELGPTLDTLQLDVADFATTIWQQMEELGMAPALQPTQGAMPAFASAFQRRAGGVLVASHLQSFLEVSYRVLRHLAQP
- Expression of Ki67 in AML cells in BM center and endosteal region ([4]; after 5 days of administration of G-CSF): expression of Ki67 was induced
- BrdU uptake of AML cells in the endosteal region ([4]; after administration of G-CSF): increase in BrdU uptake
- LSCs in the G0 phase fraction (hCD34+CD38− LSCs; [6]): decreased significantly
- LSCs in the S phase and G2/M phase (hCD34+CD38− LSCs; [6]): increased
